Assay results: US20100093062A1, “TR[…] FOR PERKINSUS SPECIES” (priority 2007, published 2010)
Entries after “also recorded” stand apart in the source; their conditions may differ.

Test system: Perkinsus proliferation
Assay: Effect of selectable marker candidates on Perkinsus proliferation (OD600 over time, visual inspection of treated cells)
Type: cell-based, Perkinsus marinus
Settings: for position of OD600 curve in FIG. 2: at 15 days, curves ranked top to bottom; for effect on parasite growth / Perkinsus proliferation: FIG. 2, optical density (OD600) as a function of time in days
Description: FIG. 2 is a graph of Optical density (OD600) as a function of time, in days, for various selectable marker candidates for their effect on Perkinsus proliferation. […]
G418 (800 μg/ml) was highly toxic, with visible effects six days after treatment. […] Visual inspection of the treated cells indicated changes in the morphology and cell death. These changes were more evident for G418 and pyrimethamine than with the CAP treatment.

CN[C@@H]1[C@@H](O)[C@@H](O[C@@H]2[C@@H](O)[C@H](O[C@H]3O[C@H]([C@@H](C)O)[C@@H](O)[C@H](O)[C@H]3N)[C@@H](N)C[C@H]2N)OC[C@]1(C)O [G418]
position of OD600 curve in FIG. 2 (100 μg/ml): lowest curve | position of OD600 curve in FIG. 2 (400 μg/ml): seventh highest curve | time to visible effects after treatment (800 μg/ml): six | toxicity to the parasite (800 μg/ml): highly toxic | position of OD600 curve in FIG. 2 (800 μg/ml): sixth highest curve | time to cells dying after treatment (100 and 400 μg/ml): 15 days | effect on parasite growth / Perkinsus proliferation: inhibited parasite growth; also recorded: inhibition of Perkinsus proliferation, especially G418 | changes in the morphology and cell death, visual inspection of treated cells (compared with the CAP treatment): more evident | effect on parasite growth (lower doses tested, 100 and 400 μg/ml): still inhibited parasite growth

O=C(N[C@H](CO)[C@H](O)c1ccc([N+](=O)[O-])cc1)C(Cl)Cl [chloramphenicol]
position of OD600 curve in FIG. 2 (50 μg/ml): third highest curve | position of OD600 curve in FIG. 2 (100 μg/ml): fourth highest curve | position of OD600 curve in FIG. 2 (400 μg/ml): fifth highest curve | effect on parasite growth / Perkinsus proliferation: inhibited parasite growth | effect on parasite growth / Perkinsus proliferation (listed as CAP): inhibition of Perkinsus proliferation
